Experimental data from US20170296568A1, “SIRTUIN GENE POTENTIATOR, AND PHARMACEUTICAL PRODUCT, COSMETIC PRODUCT, AND FOOD PRODUCT USING SAME” (MORISHITA JINTAN CO., LTD., priority 2012, published 2017).

test system: hSIRT1 promoter; assay: Screening for SIRT1 enhancing polyphenol or terpenoid: hSIRT1 promoter activity (EGFP fluorescence) in Caco-2-hSIRT1p-EGFP cells; type: cell-based, human; conditions: 10 μM, 2 days after addition, relative ratio to control (PBS), FIG. 1
Source text: First, the promoter region (−1593 to −1 bp) of hSIRT1 (human SIRT1) was acquired using the LA-PCR method using, as a template, a human genome DNA extracted from TIG-1 cells (obtained from Institute of Development, Aging and Cancer, Tohoku University), with primers synthesized based on reported information of the hSIRT1 genomic sequence so as to synthesize primers having added AseI and NheI recognition sequences at their respective ends (hSIRT1p-AseI (SEQ ID NO: 1) and hSIRT1p-NheI (SEQ ID NO: 2)). The PCR reaction condition was at 94° C. for 1 minute, followed by at 98° C. for 20 seconds; and at 68° C. for 2 minutes, 34 cycles; and then at 72° C. for 10 minutes for extension reaction. LA-Taq from Takara Shuzo Co., Ltd. was used as the TaqDNApolymerase. The primers were synthesized by Nippon EGT based on our request.
The hSIRT1 promoter fragment obtained by the LA-PCR was subjected to TA cloning using a pGEM-T Easy vector (manufactured by Promega KK). Furthermore, the base sequence thereof was confirmed by sequencing. The hSIRT1 promoter fragment, inserted into the pGEM-T Easy vector, was cut out by digestion with the restriction enzymes AseI and NheI, and the CMV promoter of a pEGFP-C3 (manufactured by Takara Bio Inc.) was removed by digestion with AseI and NheI in a similar manner, and the hSIRT1 promoter fragment was inserted into that removed site, so that phSIRT1p-EGFP was obtained.
Transfection was performed using a LIPOFECT AMINE 2000 REAGENT (manufactured by Life Technologies) according to its protocol. On the day before the transfection, Caco-2 cells (human colonic cancer-derived cells obtained from Riken BioResource Center) were plated at 1.0×10^6 in a 10-mL dish. On the day of the transfection, phSIRT1p-EGFP (10 μg) was diluted in a serum-free OPTI-MEM medium to a volume of 750 μL, after which 15 μL of LIPOFECT AMINE Reagent was diluted in a serum-free OPTI-MEM medium to […], and they were incubated at room temperature for 5 minutes. The transfection using the LIPOFECT AMINE Reagent was performed in the absence of serum, during which the culture medium of the Caco-2 cells plated on the previous day was removed, and was replaced by 5 mL of serum-free OPTI-MEM medium. After 30 minutes of this, 1.5 mL of DNA-LIPOFECT AMINE 2000 mixture was added to each 10-mL dish. After the addition, the dish was gently shaken to mix the DNA-LIPOFECT AMINE and the OPTI-MEM. After the culture for 3 hours, the DNA-LIPOFECT AMINE mixture solution was removed, and the medium was replaced by a serum-containing culture medium. Subsequently, culture was performed under the environment at 5% CO2/95% air and 37° C. for 21 hours, and the culture medium was replaced by a new one.
Since phSIRT1p-EGFP is resistant to the drug G418, the drug G418 was added to the transfected cells to 70 μg/mL to subject them to the drug selection for a week. The culture medium was replaced by a new one every three days, and G418 was added every time at the same concentration. Accordingly, Caco-2-hSIRT1p-EGFP cells were obtained.
Caco-2-hSIRT1p-EGFP cells were plated at 0.6×10^4 cells/well in a 96-well plate. On the next day, 10 μM polyphenol or terpenoid, or control (PBS) was added to each well. At 2 days after the addition, the culture solution was aspirated, after which 100 μL of 4% paraformaldehyde was added to each well, and the plate was allowed to stand at room temperature for 10 minutes. After the plate was allowed to stand for 10 minutes, 4% paraformaldehyde was aspirated, 100 μL of Cellstain (registered trademark)-Hoechst 33342 solution (Dojindo) diluted 1/500 with PBS was added to each well, and the plate was allowed to stand at room temperature in the dark for 15 minutes and the solution was then aspirated. Then, 100 μL of PBS was added to each well, and the fluorescence intensity was measured using an IN Cell Analyzer 1000 (GE Healthcare, Amersham Place, UK). The promoter activity was represented by a relative ratio to the activity of the control.

Row | SMILES | relative hSIRT1 promoter activity
1 | O=c1c(O)c(-c2ccc(O)c(O)c2)oc2cc(O)ccc12 [fisetin] | particularly strong hSIRT1 promoter enhancing activity
2 | O=C1OC[C@H]2OC(O)[C@H](O)[C@@H](O)[C@@H]2OC(=O)c2cc(O)c(O)c(O)c2-c2c(O)c(O)c3oc(=O)c4c(c(O)c(O)c5oc(=O)c2c3c54)-c2c1cc(O)c(O)c2O (mixture of isomers) [punicalin] | particularly strong hSIRT1 promoter enhancing activity
3 | C[C@@]12C=Cc3occc3[C@H]1CC[C@@]13C[C@@H](CC[C@H]12)[C@@](O)(CO)C3 [kahweol] | particularly strong hSIRT1 promoter enhancing activity
4 | O=c1oc2cc(O)ccc2c2ccc(O)cc12 [urolithin A] | particularly strong hSIRT1 promoter enhancing activity
5 | O=C1O[C@H]2[C@@H]3OC(=O)c4cc(O)c(O)c(O)c4-c4c(O)c(O)c5oc(=O)c6c(c(O)c(O)c7oc(=O)c4c5c76)-c4c(cc(O)c(O)c4O)C(=O)OC[C@H]3OC(O)[C@@H]2OC(=O)c2cc(O)c(O)c(O)c2-c2c1cc(O)c(O)c2O (mixture of isomers) [punicalagin] | particularly strong hSIRT1 promoter enhancing activity
